{
  "source": "patent US20170035708A1",
  "about": "“USE OF N-(4-TERT-BUTYLBENZYL)-3-CHLORO-N-[2-(4-CHLORO-3-ETHYL-PHENYL)-ETHYL]-2-FLUORO-5-TRIFLUOROMETHYL-BENZAMIDE FOR THE TREATMENT OF EYE DISEASES” (Hoffmann-La Roche Inc., priority 2013, published 2017)",
  "key": {"[1]": {"assay": "Clinical pharmacokinetics, SAD/MAD study and food effect", "format": "in vivo, human", "procedure": "Two clinical studies have been completed with N-(4-tert-Butyl-benzyl)-3-chloro-N-[2-(4-chloro-3-ethyl-phenyl)-ethyl]-2-fluoro-5-trifluoromethyl-benz-amide in male healthy subject and male mildly dyslipidemic subjects.\nFollowing oral administration of N-(4-tert-Butyl-benzyl)-3-chloro-N-[2-(4-chloro-3-ethyl-phenyl)-ethyl]-2-fluoro-5-trifluoromethyl-benz-amide at single ascending doses (SAD) and multiple ascending doses (MAD) in a first clinical study, a lag time (Tlag) of 0.5 hour was observed, and Cmax was achieved on average at 3 hours post-dose.\nFood increased the oral bioavailability of N-(4-tert-Butyl-benzyl)-3-chloro-N-[2-(4-chloro-3-ethyl-phenyl)-ethyl]-2-fluoro-5-trifluoromethyl-benz-amide. A standard breakfast increased exposure in terms of AUC and Cmax by approximately 4- to 6-fold, compared with the fasted state and depending on the formulation used."}, "plasma protein": {"system": "plasma protein", "assay": "In vitro plasma protein binding", "format": "in vitro ADME", "procedure": "(§1) The pharmacokinetic (PK) properties of N-(4-tert-Butyl-benzyl)-3-chloro-N-[2-(4-chloro-3-ethyl-phenyl)-ethyl]-2-fluoro-5-trifluoromethyl-benz-amide were assessed in the rat and cynomolgus monkey. […] The very high protein binding, in combination with moderate membrane permeability, is the likely cause for the low volume of distribution observed in vivo."}, "plasma CETP activity": {"biological_target": "T1, plasma CETP activity (Homo sapiens, UniProt P11597)", "T1 construct": "from tissue; host or cells: plasma of study subjects", "T1 sequence (P11597 18-493)": "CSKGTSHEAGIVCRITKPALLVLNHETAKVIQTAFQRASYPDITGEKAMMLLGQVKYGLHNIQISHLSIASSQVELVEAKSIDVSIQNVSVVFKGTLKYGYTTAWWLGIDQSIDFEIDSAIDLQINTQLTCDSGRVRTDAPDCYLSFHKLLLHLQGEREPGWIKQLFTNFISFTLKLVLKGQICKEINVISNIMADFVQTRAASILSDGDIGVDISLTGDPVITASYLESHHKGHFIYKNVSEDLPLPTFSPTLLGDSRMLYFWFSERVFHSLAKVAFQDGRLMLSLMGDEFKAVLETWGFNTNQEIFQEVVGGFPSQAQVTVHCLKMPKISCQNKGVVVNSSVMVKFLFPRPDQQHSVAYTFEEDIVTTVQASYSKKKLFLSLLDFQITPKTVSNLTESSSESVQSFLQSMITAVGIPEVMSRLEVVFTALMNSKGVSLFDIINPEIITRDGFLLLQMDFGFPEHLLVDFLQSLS", "assay": "Plasma CETP activity and CETP mass in combined SAD/MAD clinical study", "format": "in vivo", "procedure": "The main difference between the different doses was the duration of the inhibition, which was sustained for 24 hours with the two highest tested multiple dose levels (180 mg and 420 mg). […] After multiple doses of N-(4-tert-Butyl-benzyl)-3-chloro-N-[2-(4-chloro-3-ethyl-phenyl)-ethyl]-2-fluoro-5-trifluoromethyl-benz-amide for 14 days, a similar trend in CETP inhibition was observed."}, "CETP activity": {"biological_target": "T2, CETP activity (Macaca fascicularis, UniProt P47896)", "T2 construct": "from tissue; host or cells: cynomolgus monkey, in vivo (endogenous circulating CETP)", "T2 sequence (P47896 18-493)": "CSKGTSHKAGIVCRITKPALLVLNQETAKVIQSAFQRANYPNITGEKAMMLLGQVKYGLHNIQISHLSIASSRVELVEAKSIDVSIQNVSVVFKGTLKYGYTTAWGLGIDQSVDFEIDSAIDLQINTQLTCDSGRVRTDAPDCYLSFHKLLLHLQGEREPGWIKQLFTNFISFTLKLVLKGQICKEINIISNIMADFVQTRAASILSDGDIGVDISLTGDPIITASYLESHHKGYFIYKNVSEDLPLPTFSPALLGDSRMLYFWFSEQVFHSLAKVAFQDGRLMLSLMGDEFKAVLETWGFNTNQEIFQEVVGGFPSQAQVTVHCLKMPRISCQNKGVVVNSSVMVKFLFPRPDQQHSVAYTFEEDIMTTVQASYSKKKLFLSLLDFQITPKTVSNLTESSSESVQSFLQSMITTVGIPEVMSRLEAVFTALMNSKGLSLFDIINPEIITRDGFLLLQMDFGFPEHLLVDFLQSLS", "assay": "In vivo inhibition of CETP activity in cynomolgus monkeys"}, "scavenger receptor SRB1": {"system": "scavenger receptor SRB1", "assay": "Cholesterol efflux from cells", "format": "cell-based", "conditions": "via scavenger receptor SRB1", "description": "(§2) N-(4-tert-Butyl-benzyl)-3-chloro-N-[2-(4-chloro-3-ethyl-phenyl)-ethyl]-2-fluoro-5-trifluoromethyl-benz-amide is a potent inhibitor of cholesteryl ester transfer protein (CETP), which was originally developed for the treatment of dyslipidemia and prevention of cardiovascular events. The clinical development was discontinued in 2009 due to strategic portfolio decision; the discontinuation was not due to the safety profile of the product. […] Liquid-filled hard capsules in the dose strength of 60 mg have been developed."}, "[2]": {"system": "HDL-C, LDL-C, apoA-I, apoB-100", "assay": "Plasma lipids and apolipoproteins after multiple doses for 14 days in clinical study", "format": "in vivo, human", "procedure": "The CETP inhibition achieved with multiple doses of up to 420 mg N-(4-tert-Butyl-benzyl)-3-chloro-N-[2-(4-chloro-3-ethyl-phenyl)-ethyl]-2-fluoro-5-trifluoromethyl-benz-amide for 14 days in healthy subjects was associated with increase of HDL-C and apolipoprotein A-I (apoA-I) and decrease in LDL-C and apolipoprotein B-100 (apoB-100). […] The maximum mean increase from baseline ranged from 48% to 55% with the 180 and 420 mg doses, respectively, and was maintained over the entire dosing interval of 24 hours. For LDL-C, plasma levels decreased after 14 days of treatment with all N-(4-tert-Butyl-benzyl)-3-chloro-N-[2-(4-chloro-3-ethyl-phenyl)-ethyl]-2-fluoro-5-trifluoromethyl-benz-amide doses from 10 to 420 mg."}, "[3]": {"assay": "Physicochemical properties (solubility, stability, lipophilicity)", "description": "as §2, §1"}, "[4]": {"conditions": "multiple doses of up to 420 mg for 14 days, healthy subjects"}},
  "data": [
    {"smiles": "CCc1cc(CCN(Cc2ccc(C(C)(C)C)cc2)C(=O)c2cc(C(F)(F)F)cc(Cl)c2F)ccc1Cl", "note": "[Compound 1, N-(4-tert-Butyl-benzyl)-3-chloro-N-[2-(4-chloro-3-ethyl-phenyl)-ethyl]-2-fluoro-5-trifluoromethyl-benzamide]", "values": [
      {"measurement": "accumulation ratio for AUC0-24h", "setting": "[1]; 420 mg once daily, Day 14 to Day 1", "value": 1.4},
      {"measurement": "accumulation with once-daily regimen", "setting": "[1]; across doses except the highest dose (420 mg)", "value": "No accumulation was apparent"},
      {"measurement": "half-life", "setting": "[1]; male, human, in vivo, oral, after multiple doses above 10 mg, read-out: mean terminal half-life", "value": "15 to 35", "unit": "h"},
      {"measurement": "dose up to which AUC0-24h and Cmax increased dose-proportionally", "setting": "[1]; multiple doses (part 2 MAD)", "value": "≤ 180", "unit": "mg"},
      {"measurement": "lag time (Tlag)", "setting": "[1]; oral, SAD and MAD, first clinical study", "value": 0.5, "unit": "h"},
      {"measurement": "dose up to which AUC0-24h and Cmax increased dose-proportionally", "setting": "[1]; single doses (part 1 SAD)", "value": "≤ 360", "unit": "mg"},
      {"measurement": "plasma protein binding in vitro", "setting": "plasma protein", "value": "extremely high and concentration-independent"},
      {"measurement": "CETP mass", "setting": "plasma CETP activity; after multiple doses", "value": "dose-dependent and time-dependent increase"},
      {"measurement": "inhibition of plasma CETP activity", "setting": "plasma CETP activity; first measurement, 2 hours post-dose, Day 1, all doses, healthy and mildly dyslipidemic subjects", "value": "Complete CETP inhibition"},
      {"measurement": "duration of the CETP inhibition", "setting": "plasma CETP activity; two highest multiple dose levels (180 mg and 420 mg)", "value": 24, "unit": "h"},
      {"measurement": "inhibition of CETP activity in vivo", "setting": "CETP activity", "value": "inhibition of CETP activity has been demonstrated"},
      {"measurement": "cholesterol efflux from cells", "setting": "scavenger receptor SRB1", "value": "efflux cholesterol from cells via scavenger receptor SRB1"},
      {"measurement": "mean LDL-C decrease over the entire dosing interval", "setting": "[2]; 180 mg dose and higher doses, 14 days", "value": "at least 30%"},
      {"measurement": "HDL-C maximum mean increase from baseline", "setting": "[2]; 180 mg, 14 days", "value": 48, "unit": "%"},
      {"measurement": "HDL-C maximum mean increase from baseline", "setting": "[2]; 420 mg, 14 days", "value": 55, "unit": "%"},
      {"measurement": "apolipoprotein A-I (apoA-I)", "setting": "[2]; [4]", "value": "increase"},
      {"measurement": "apolipoprotein B-100 (apoB-100)", "setting": "[2]; [4]", "value": "decrease"},
      {"measurement": "lipophilicity", "setting": "[3]", "value": "highly lipophilic"},
      {"measurement": "solubility in aqueous media", "setting": "[3]; aqueous media", "value": "practically insoluble"},
      {"measurement": "dissolution rate", "setting": "[3]; as cause of limited absorption", "value": "low"},
      {"measurement": "solubility", "setting": "[3]; as cause of limited absorption", "value": "low"},
      {"measurement": "solubility in common organic solvents", "setting": "[3]; common organic solvents", "value": "soluble"},
      {"measurement": "stability of the powder", "setting": "[3]; white to off-white powder", "value": "stable"}
    ]}
  ]
}
